Laboratory results taken from paper PMC9706920, “Aryloxypropanolamine targets amyloid aggregates and reverses Alzheimer-like phenotypes in Alzheimer mouse models” (Alzheimer's Research & Therapy, 2022).

Legend:
[1] = test system: 5XFAD mice; assay: Western blot of brain lysates of 5XFAD mice; format: in vivo, mouse; details: 50 mg/kg/day, 5 weeks
Description: To test the in vivo efficacy of YIAD001 and YIAD002, female 5XFAD mice (n = 25) and female wildtype mice (n = 7) were assessed at the age of 4.5 months. YIAD compounds were dissolved in DMSO and diluted in drinking water to a final concentration of 50 mg/kg/day (5% DMSO, 5% Tween) for oral administration. The three compounds, YIAD001, YIAD002, and YIAD003, were freely administered via drinking water to 4.5-month-old 5XFAD mice (n = 6 for each group) for 5 weeks. As a control, 5% DMSO, 5% Tween in drinking water was provided ad libitum to littermate 5XFAD mice (n = 7) and wildtype mice (n = 7) for 5 weeks.
After the administration period, the mice were deeply anaesthetized with 4% avertin through intraperitoneal injection and transcardially perfused with 0.9% saline. Subsequently, the mice were sacrificed for brain excision. Each collected brain was divided through the mid-sagittal section; the hippocampal and cortical regions were dissected from one half and stored at −80°C for subsequent brain lysates, while the other half was immersed in 4% paraformaldehyde (pH 7.4) for 24 h and 30% sucrose for 48 h at 4°C and subsequently deep-froze at −80°C for immunohistochemistry.
Isolated cortical and hippocampal tissue samples were homogenized in ice-cold RIPA buffer with protease inhibitor cocktail and phosphatase inhibitor cocktail. Lysed tissues were incubated in ice for 30 min and subsequently centrifuged at 14,000 rpm at 4°C for 30 min. The supernatants of the brain lysates were collected and soluble protein concentrations were quantified with the Pierce BCA protein assay kit (Thermo Fisher Scientific, USA).
Western blot analysis was performed to assess YIAD002-induced alterations of protein biomarkers in 5XFAD mice brain lysates. Twenty micrograms of lysate samples were loaded onto 12% tris-tricine gels, separated by SDS-PAGE, and transferred to nitrocellulose membranes. Membranes were blocked by 5% skim milk or 5% BSA in TBS-T. The following primary antibodies were used for immunoblotting: anti-6E10 for APP (1:1000, Biolegend 803003), anti-AT8 (1:1000, Invitrogen MN1020), anti-Tau (1:1000, Santa Cruz SC390476), anti-ionized calcium-binding adapter molecule (Iba1) (1:1000, CST, 17198S), anti-glial fibrillar acidic protein (GFAP) (1:2000, Milipore AB5541), anti-postsynaptic density protein 95 (PSD95) (1:1000, CST 3450S), anti-synaptophysin (1:1000, Milipore MAB5258), and anti-β-Actin (1:10,000, Milipore MAB1501). Membranes were incubated with primary antibodies at 4°C overnight and probed with HRP-conjugated IgG antibodies (1:10,000) in RT for an hour. Proteins were detected using an ECL kit (Thermo Fisher Scientific, USA). Membranes were washed with TBS-T in between steps, three times for 10 min.

[2] = test system: APP/PS1 mice; assay: 6E10 immunohistochemical staining of amyloid plaques in APP/PS1 mice; format: in vivo, mouse; details: YIAD002-treated APP/PS1 mice vs vehicle
Description: (§1) To test whether YIAD002 could reduce amyloid plaques in another AD mouse model, APP/PS1 transgenic mice (n = 24) and wildtype mice (n = 5) were assessed at the age of 7.5 months. YIAD002 was dissolved in PBS (0.5% methylcellulose) at two different concentrations (10 and 30 mg/kg/day) and administrated daily to APP/PS1 mice (n = 8 for each group) via oral gavage for 8 weeks. As a control, vehicle solutions were orally administrated to littermate APP/PS1 mice (n = 8) and wildtype mice (n = 5).
Formalin-fixed APP/PS1 mice brains were infiltrated with paraffin using a tissue processor (LEICA ASP300S, Germany). Blocks of tissues were produced with a tissue embedding center and sectioned into thin slices (4 μm), which were mounted onto glass slides. To prepare for 6E10 staining, slides were deparaffinized, rehydrated, and blocked with 0.03% H2O2 to remove endogenous peroxidase. For antigen retrieval, slides were boiled in Tris/EDTA solution (pH 9.0) using a pressure cooker. Unspecific binding was blocked through incubation in 4% BSA at RT for 30 min. Slides were immunolabeled with anti-6E10 antibody (1:2000, Novus Biologicals NBP2-62566) at RT for 1 h and HRP-labeled secondary antibody (Dako K4003) for 30 min and subsequently stained with DAB (3,3′-Diaminobenzidine) and counterstained with Mayer’s hematoxylin. Stained slides were scanned using ZEISS Axio scan.Z1 microscope. Amyloid plaques were quantified using Image-J software (NIH).

[3] = Observation of adverse effects in the current studies
[4] = Plasma stability, rat; format: in vitro ADME; details: 10 μM, 37°C, vs 0 min
Description: To assess the plasma stability of YIAD002, […] rat plasma and incubated at 37°C for the following time points: 0, 30, and 120 min. At the end of incubation, acetonitrile with chlorpropamide was added to stop reactions. The solutions were centrifuged at 14,000 rpm at 4°C for 5 min and the supernatant was analyzed with LC-MS/MS. High performance liquid chromatography was carried out on a Kinetex C18 column (2.1 × 100 mm, 2.6 μm particle size, Phenomenex, USA). The composition of the mobile phase was 0.1% formic acid in water (A) and 0.1% formic acid in acetonitrile (B).

[5] = test system: APP/PS1 mice; assay: Morris water maze in APP/PS1 mice; format: in vivo, mouse; details: 30 mg/kg/day oral, 10 weeks, vs vehicle
Description: as §1
The Morris water maze was used to evaluate whether YIAD002 could improve cognitive function in APP/PS1 mice during the tenth week of administration. A circular stainless pool with a radius of 90 cm and height of 50 cm with water kept at 22±1°C. Nontoxic opaque white paint was used to hide a platform with a radius of 9 cm hidden 1 cm beneath the surface. The training phase consisted of 5 days, in which the mice were given 60 s to find the platform. On circumstances where a mouse could not reach the platform within 60 s, it was placed on the platform where it had to remain for 10 s. The probe test took place on the sixth day, in which the platform was removed and the mice swam freely for 60 s. Swimming trajectories were recorded and analyzed using SMART VIDEO TRACKING Software (Panlab, USA). To assess cognitive improvement in YIAD002-treated mice groups, latency to target (seconds) and the number of target crossings were compared to vehicle-treated APP/PS1 mice. After the probe trial, the mice were sacrificed and the collected brains were fixed in formalin.

| Compound | Cortical and hippocampal APP levels [1] | Cortical total tau levels ([1]; vs vehicle) | Increase of cortical PSD95 levels ([1]; vs vehicle) [%] | Increase of cortical synaptophysin levels ([1]; vs vehicle) [%] | Reduction of cortical Iba1 levels ([1]; vs vehicle) [%] | Reduction of cortical phosphorylated tau (AT8) ([1]; vs vehicle) | Number of plaques, cortex [2] | Plaque size, hippocampus [2] | Size of plaques, cortex [2] | Area of 6E10-stained plaques, whole brain ([2]; dose not given) | Number of 6E10-stained plaques, whole brain ([2]; dose not given) | Adverse effects of toxicity [3] | Compound remaining in rat plasma ([4]; 30 min) [%] | Compound remaining in rat plasma ([4]; 120 min) [%] | Reduction of GFAP expression ([1]; cortical lysates, vs vehicle) [%] | Escape latency after 5 days of training ([5]; 7.5-month-old APP/PS1 mice) | Latency to target, probe trial ([5]; APP/PS1 mice) | Target crossings, probe trial ([5]; APP/PS1 mice) |
| --- | --- | --- | --- | --- | --- | --- | --- | --- | --- | --- | --- | --- | --- | --- | --- | --- | --- | --- |
| CCC(C)(C)c1ccc(OCC(O)CN2CCOCC2)c(C(C)(C)CC)c1.Cl (stereo not drawn) [YIAD001, 4-(3-(2,4-Di-tert-pentylphenoxy)-2-hydroxypropyl)morpholin-4-ium chloride] | did not induce significant shift | not affected | 44.59 | 38.68 | 26.08 | did not affect | – | – | – | – | – | – | – | – | – | – | – | – |
| CCC(C)(C)c1ccc(OCC(O)CN2CCCC2)c(C(C)(C)CC)c1.Cl (stereo not drawn) [YIAD002, 1-(3-(2,4-Di-tert-pentylphenoxy)-2-hydroxypropyl)pyrrolidin-1-ium chloride] | did not induce significant shift | not affected | 51.97 | 57.47 | 32.11 | 35.29% | significantly reduced | significantly reduced | significantly reduced | reduced | reduced | not observed | 94.5 | 87.7 | 32.76 | significantly shortened | significantly shorter | increased target crossings |
